Results published in ChEMBL document CHEMBL5370619, “Targeting the Tyrosine Kinase 2 (TYK2) Pseudokinase Domain: Discovery of the Selective TYK2 Inhibitor ABBV-712” (J Med Chem, 2023).
Values after ≈ are worked out from the molar mass of the structure shown.

Columns and labels:
Mus musculus [1] = assay: Anti-inflammatory activity in B10.RII mouse model of mouse IL-23 mini circle induced psoriasiform dermatitis assessed as decrease in ear thickness at 100 mg/kg,po QD for 5 days by caliper analysis; assay type: functional; parameters: scale not given: the % may be the effect or the level left; details: time 5 day
CYP3A4 = CYP3A4 (Homo sapiens, UniProt P08684); assay: Induction of CYP3A4 in human hepatocytes assessed as maximum activation in mRNA level at 10 uM incubated for 24 hrs by RT-qPCR analysis relative to control; assay type: ADME, cell-based, Hepatocyte; details: read-out: max activation
CYP3A4, sequence (P08684 whole entry): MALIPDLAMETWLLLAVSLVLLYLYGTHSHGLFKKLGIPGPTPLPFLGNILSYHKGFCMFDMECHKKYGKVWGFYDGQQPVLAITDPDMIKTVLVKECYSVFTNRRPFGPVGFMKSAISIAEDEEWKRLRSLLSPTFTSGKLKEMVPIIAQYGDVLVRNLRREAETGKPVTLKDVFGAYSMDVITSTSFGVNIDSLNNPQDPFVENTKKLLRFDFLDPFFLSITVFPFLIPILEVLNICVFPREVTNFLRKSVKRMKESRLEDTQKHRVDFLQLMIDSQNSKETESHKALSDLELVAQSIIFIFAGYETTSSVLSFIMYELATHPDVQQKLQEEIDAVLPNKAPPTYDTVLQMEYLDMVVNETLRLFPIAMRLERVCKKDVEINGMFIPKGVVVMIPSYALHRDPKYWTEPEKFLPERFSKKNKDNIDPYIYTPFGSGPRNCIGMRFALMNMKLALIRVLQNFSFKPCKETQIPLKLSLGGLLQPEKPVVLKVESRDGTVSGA

Mus musculus [2] = assay: Anti-inflammatory activity in po dosed B10.RII mouse model of mouse IL-23 mini circle induced psoriasiform dermatitis assessed as decrease in ear thickness measured at 101 to 10000 ng/ml of whole blood drug exposure level measured after 30 mins; assay type: functional, organism-based; details: 0.5 h
[3] = Half life in dog at 1 mg/kg, iv; assay type: ADME, organism-based, Canis lupus familiaris; details: in vivo
[4] = Oral bioavailability in cynomolgus monkey at 1 mg/kg; assay type: ADME, organism-based, Macaca fascicularis; details: in vivo
[5] = target: Non-receptor tyrosine-protein kinase TYK2 (Mus musculus, UniProt Q9R117); assay: Inhibition of TYK2 in C57/B6 mouse whole blood assessed as decrease in STAT4 phosphorylation preincubated for 30 mins followed by mouse IL-12p70 stimulation and measured after 20 mins by flow cytometry; assay type: tissue-based
Non-receptor tyrosine-protein kinase TYK2 (Mus musculus, UniProt Q9R117), sequence (Q9R117 whole entry): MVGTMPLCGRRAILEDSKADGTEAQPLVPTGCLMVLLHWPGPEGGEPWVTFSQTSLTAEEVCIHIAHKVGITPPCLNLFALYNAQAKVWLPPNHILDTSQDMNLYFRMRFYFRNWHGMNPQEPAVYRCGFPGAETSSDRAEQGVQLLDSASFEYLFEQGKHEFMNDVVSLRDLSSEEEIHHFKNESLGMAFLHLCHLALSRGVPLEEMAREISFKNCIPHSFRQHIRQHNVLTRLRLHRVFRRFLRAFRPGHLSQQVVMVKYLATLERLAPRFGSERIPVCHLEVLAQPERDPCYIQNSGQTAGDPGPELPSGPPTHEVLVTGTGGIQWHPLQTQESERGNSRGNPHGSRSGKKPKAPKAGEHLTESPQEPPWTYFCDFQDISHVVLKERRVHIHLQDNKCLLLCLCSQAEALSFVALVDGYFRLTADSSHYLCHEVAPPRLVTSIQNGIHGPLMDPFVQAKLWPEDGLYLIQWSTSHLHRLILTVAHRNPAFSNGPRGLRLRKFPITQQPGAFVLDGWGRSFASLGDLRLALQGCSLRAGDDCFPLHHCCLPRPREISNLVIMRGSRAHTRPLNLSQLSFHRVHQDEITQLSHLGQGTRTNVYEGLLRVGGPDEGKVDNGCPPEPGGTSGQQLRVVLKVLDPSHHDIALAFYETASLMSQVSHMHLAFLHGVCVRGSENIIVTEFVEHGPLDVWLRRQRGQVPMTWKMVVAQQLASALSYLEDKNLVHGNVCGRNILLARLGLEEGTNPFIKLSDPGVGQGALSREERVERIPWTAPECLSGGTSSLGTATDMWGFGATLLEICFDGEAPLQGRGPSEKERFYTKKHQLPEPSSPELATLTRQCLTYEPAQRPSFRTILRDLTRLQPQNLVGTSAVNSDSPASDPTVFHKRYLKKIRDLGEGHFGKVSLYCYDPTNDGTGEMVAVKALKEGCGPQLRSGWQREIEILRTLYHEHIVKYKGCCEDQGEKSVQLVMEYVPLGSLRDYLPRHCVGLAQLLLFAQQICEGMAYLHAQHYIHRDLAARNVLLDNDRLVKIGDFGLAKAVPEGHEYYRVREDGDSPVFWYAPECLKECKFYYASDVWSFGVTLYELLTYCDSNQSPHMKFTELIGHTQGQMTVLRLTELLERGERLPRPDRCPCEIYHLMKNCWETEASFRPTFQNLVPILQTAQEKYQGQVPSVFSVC

[6] = Half life in rat at 1 mg/kg, iv or 1 mg/kg,po; assay type: ADME, organism-based; details: in vivo
[7] = target: Tyrosine-protein kinase JAK1 (Homo sapiens, UniProt P23458); assay: Inhibition of JAK1 in human TF-1 cells assessed as reduction in IL-6 induced STAT3 phosphorylation at Tyr705 residue preincubated for 30 mins followed by IL-6 stimulation and measured after 30 mins by AlphaScreen assay; assay type: cell-based
Tyrosine-protein kinase JAK1, sequence (P23458 whole entry): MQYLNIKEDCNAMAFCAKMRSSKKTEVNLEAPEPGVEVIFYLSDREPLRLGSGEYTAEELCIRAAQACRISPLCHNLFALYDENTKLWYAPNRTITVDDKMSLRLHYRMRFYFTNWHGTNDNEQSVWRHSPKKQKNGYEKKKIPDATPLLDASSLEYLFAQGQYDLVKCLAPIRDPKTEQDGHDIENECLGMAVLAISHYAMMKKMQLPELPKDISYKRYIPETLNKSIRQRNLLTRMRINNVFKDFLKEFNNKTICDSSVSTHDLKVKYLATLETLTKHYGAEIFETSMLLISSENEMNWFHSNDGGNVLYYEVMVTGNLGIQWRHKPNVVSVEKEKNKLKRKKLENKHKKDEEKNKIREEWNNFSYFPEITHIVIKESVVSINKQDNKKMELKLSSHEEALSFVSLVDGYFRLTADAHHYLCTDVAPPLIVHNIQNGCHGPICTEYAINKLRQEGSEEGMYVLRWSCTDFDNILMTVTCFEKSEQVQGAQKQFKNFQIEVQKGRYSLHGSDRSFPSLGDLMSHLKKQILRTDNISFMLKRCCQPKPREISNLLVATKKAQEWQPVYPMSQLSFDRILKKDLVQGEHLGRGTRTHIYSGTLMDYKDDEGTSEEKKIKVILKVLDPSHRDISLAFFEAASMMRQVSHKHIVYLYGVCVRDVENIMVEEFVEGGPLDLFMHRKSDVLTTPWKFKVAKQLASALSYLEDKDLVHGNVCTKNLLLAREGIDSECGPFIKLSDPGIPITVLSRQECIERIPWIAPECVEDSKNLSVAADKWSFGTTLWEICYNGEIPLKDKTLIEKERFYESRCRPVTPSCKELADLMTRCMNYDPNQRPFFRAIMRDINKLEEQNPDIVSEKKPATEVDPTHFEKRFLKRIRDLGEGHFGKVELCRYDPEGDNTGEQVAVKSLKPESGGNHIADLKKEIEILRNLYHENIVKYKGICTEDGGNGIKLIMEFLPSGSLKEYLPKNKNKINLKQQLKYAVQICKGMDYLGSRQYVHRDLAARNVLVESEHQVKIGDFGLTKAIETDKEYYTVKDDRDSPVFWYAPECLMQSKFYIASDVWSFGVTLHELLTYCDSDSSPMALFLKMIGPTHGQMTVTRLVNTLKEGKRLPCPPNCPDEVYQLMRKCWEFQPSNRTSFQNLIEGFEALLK

Mus musculus [8] = assay: Anti-inflammatory activity in B10.RII mouse model of mouse IL-23 mini circle induced psoriasiform dermatitis assessed as decrease in ear thickness at 30 mg/kg,po BID for 5 days by caliper analysis; assay type: functional; parameters: scale not given: the % may be the effect or the level left; details: time 5 day
Mus musculus [9] = assay: Anti-inflammatory activity in B10.RII mouse model of mouse IL-23 mini circle induced psoriasiform dermatitis assessed as decrease in ear thickness at 10 mg/kg,po BID for 5 days by caliper analysis; assay type: functional; parameters: scale not given: the % may be the effect or the level left; details: time 5 day
[10] = In vivo inhibition of TYK2 in IL-12/IL-18 induced C57/B6 mouse model assessed as reduction in serum IFN-gamma production at 30 mg/kg,po pretreated for 30 mins prior to IL-12/IL-18 challenge and measured after 4 hrs by MSD assay; assay type: functional; details: C57/B6, 4.5 h, time 270 min
[11] = target: Non-receptor tyrosine-protein kinase TYK2 (Homo sapiens, UniProt P29597); assay: Inhibition of TYK2 in human whole blood assessed as decrease in STAT4 phosphorylation preincubated for 30 mins followed by human IL-23 stimulation and measured after 20 mins by flow cytometry; assay type: tissue-based
Non-receptor tyrosine-protein kinase TYK2 (Homo sapiens, UniProt P29597), sequence (P29597 whole entry): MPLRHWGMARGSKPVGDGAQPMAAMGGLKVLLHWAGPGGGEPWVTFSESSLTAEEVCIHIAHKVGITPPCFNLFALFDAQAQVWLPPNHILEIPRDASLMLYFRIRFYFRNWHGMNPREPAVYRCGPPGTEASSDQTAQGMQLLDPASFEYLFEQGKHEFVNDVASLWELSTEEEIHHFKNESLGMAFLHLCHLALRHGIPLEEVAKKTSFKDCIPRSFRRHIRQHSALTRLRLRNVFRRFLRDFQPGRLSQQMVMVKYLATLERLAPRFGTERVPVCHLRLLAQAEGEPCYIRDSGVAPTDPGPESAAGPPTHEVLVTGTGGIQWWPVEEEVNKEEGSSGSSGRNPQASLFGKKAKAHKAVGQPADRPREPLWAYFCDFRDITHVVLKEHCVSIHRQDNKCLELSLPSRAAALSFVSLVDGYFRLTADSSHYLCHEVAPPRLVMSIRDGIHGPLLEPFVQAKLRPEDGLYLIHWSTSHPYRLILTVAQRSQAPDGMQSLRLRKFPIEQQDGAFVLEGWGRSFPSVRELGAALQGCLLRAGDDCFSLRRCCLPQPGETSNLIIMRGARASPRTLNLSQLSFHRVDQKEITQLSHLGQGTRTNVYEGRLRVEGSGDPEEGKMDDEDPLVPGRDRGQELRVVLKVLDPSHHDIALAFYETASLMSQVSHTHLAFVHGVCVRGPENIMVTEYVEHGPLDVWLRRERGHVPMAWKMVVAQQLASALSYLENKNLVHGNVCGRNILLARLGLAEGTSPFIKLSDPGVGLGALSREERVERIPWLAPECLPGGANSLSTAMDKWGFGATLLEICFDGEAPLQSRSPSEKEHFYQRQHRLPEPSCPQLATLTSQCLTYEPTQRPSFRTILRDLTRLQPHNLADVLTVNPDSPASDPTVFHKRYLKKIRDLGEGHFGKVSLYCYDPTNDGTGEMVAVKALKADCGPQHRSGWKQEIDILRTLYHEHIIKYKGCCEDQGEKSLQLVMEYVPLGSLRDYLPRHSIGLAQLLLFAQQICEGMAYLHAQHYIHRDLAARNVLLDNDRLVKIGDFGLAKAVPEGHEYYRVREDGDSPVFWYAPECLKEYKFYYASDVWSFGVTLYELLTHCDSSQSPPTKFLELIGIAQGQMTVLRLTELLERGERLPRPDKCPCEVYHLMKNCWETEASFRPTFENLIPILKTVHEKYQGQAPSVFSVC

[12] = In vivo inhibition of TYK2 in IL-12/IL-18 induced C57/B6 mouse model assessed as reduction in serum IFN-gamma production at 600 mg/kg,po pretreated for 30 mins prior to IL-12/IL-18 challenge and measured after 4 hrs by MSD assay; assay type: functional; details: C57/B6, 4.5 h, time 270 min

Emax at 24 h, 10 µM (CYP3A4): 2%
EC50 (Mus musculus [2]): 0.3 µg/mL (≈ 0.663 µM)
half-life [3]: 4.5 h
bioavailability [4]: 17%
EC50 [5]: 1400 nM
half-life [6]: 0.6 h
EC50 [7]: > 20000 nM
EC50 [11]: 160 nM
SMILES: COCc1cc(-c2cn(C3COC3)c3cnc(NC(C)=O)cc23)nc([C@]2(OC)CCOC2)c1
Activity (Mus musculus [1]): 58%
Activity (Mus musculus [8]): 51%
Activity (Mus musculus [9]): 38%
inhibition in vivo at 30 mg/kg [10]: 77%
inhibition in vivo at 600 mg/kg [12]: 99%
